These results are taken from patent publication US11236352B2, “Transgenic plants resistant to non-protein amino acids” (Yeda Research and Development Co. Ltd., priority 2011, dated 2022).

Structures are written as SMILES.

The subject of test [1] is cyt-PheRS Arabidopsis thaliana lines. Briefly: m-Tyr resistance: root growth on MS medium with m-Tyr, cyt-PheRS line. The format is in vivo. The conditions noted are these: cyt-PheRS expressing line, 20 μM m-Tyr in growth media, 7 days. As to the method: (§1) Root growth of Wt (wild type), Cyt (transgenic plant containing cytosol localized bacterial PheRS) and Dual (transgenic plant containing plastids localized bacterial PheRS). Upper panels: samples grown on media containing 20 μM m-Tyrosine. Bottom panels: non-treated samples.
(§2) To assess effects of m-Tyr on Arabidopsis root growth, […] of m-Try was added to MS medium. Arabidopsis seeds were sterilized by shaking in 30% bleach. 0.3% Triton X-100 for 10 min, followed by three rinses with sterile distilled water. Petri dishes with seeds on agar medium were cold-stratified for 72 h at 4° C., and were subsequently placed vertically in green-house at 23° C., under 16:8 h light/dark cycle. After 7 days of growth, the root length of the plant was analyzed.
(§3) The bacterial PheRS genes described in the “Material and Methods” section hereinabove were expressed under the control of the constitutive 35S CaMV promoter. A transit peptide was appended to N-terminus of EcPheRS-α and EcPheRS-β subunits of the bacterial enzyme in order to direct them into the mitochondria and chloroplast of Arabidopsis thaliana. The second constructs pair including PheRS-α and PheRS-β lacked the transit peptides. […] Several independent transgenic lines were obtained, and their resistance to m-Tyr was analyzed. […]

The next test addresses T1, HsmtPheRS (Homo sapiens, UniProt O95363).
T1 sequence (O95363 1-451): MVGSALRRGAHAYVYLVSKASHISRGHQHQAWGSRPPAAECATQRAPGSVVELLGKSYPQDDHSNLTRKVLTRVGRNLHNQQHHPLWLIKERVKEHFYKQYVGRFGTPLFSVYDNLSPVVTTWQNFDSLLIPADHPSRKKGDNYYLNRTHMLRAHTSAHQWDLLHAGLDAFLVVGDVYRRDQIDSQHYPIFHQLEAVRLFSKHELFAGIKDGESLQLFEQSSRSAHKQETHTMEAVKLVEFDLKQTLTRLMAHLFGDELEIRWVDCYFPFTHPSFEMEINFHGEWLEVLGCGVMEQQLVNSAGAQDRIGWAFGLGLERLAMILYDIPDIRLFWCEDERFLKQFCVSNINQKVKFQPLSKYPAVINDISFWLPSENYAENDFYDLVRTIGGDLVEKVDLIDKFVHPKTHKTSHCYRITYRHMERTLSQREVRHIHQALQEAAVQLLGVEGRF
As to conditions: mitochondrial enzyme, no editing domain; cited from earlier work.

Test [2] concerns mtp-PheRS Arabidopsis thaliana lines. As to the kind of experiment: m-Tyr resistance: root growth on MS medium with m-Tyr, mtp-PheRS line. The format is in vivo. As to conditions: lines containing mtp-PheRS, 20 μM m-Tyr in growth media, 7 days. The procedure:
as §1, §2, §3

Test [3] has as its target bacterial PheRS (Thermus thermophilus, UniProt Q5SGX1+Q5SGX2). As to conditions: FIG. 1; cited from earlier work.
Test [4] deals with Arabidopsis thaliana. As to conditions: added to an agar medium; read-out: concentration that inhibits root growth by 50%; cited from earlier work.
Test [5] has as its system wild-type Arabidopsis thaliana. As to the kind of experiment: m-Tyr resistance: root growth on MS medium with m-Tyr, wild type. The format is in vivo. As to conditions: wild type plants, 20 μM m-Tyr in growth media, 7 days. As to the method:
as §1, §2, §3

Test [6] has as its system Arabidopsis thaliana. As to conditions: in vivo; cited from earlier work.
Test [7] concerns bacterial PheRS. As to conditions: incubated with bacterial PheRS; cited from earlier work.

Chain of bacterial PheRS (Thermus thermophilus, UniProt Q5SGX1+Q5SGX2) (Q5SGX1 whole entry): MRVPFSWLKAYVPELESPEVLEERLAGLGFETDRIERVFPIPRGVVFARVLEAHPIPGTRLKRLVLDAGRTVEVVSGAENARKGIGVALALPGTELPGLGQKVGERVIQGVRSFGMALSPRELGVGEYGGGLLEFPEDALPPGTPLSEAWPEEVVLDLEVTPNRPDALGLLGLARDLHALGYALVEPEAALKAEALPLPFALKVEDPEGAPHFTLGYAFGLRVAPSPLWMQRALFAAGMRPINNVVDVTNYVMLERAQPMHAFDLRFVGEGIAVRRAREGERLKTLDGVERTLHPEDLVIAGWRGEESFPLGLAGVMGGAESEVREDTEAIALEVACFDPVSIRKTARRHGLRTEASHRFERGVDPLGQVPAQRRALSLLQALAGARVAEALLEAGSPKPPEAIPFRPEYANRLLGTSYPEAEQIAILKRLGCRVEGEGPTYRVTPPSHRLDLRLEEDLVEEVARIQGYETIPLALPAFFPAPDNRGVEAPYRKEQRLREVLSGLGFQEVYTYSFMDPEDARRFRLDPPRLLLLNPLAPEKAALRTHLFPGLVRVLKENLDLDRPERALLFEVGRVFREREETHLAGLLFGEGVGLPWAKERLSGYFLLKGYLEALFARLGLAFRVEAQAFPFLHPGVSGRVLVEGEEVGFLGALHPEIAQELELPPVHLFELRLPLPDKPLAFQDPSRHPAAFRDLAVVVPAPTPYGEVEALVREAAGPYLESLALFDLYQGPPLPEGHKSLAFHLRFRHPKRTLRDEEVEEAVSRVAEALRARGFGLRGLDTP
Chain of bacterial PheRS (Thermus thermophilus, UniProt Q5SGX1+Q5SGX2) (Q5SGX2 whole entry): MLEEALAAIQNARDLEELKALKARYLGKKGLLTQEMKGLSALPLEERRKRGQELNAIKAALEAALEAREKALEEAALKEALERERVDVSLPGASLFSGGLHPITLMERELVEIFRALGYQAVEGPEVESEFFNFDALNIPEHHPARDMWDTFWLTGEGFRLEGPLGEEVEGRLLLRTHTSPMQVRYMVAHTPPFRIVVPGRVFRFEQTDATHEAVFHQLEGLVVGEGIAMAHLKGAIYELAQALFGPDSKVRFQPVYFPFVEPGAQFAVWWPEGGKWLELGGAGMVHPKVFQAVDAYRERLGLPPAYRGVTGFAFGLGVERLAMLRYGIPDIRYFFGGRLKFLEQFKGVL

Consider `N[C@@H](Cc1cccc(O)c1)C(=O)O` [m-Tyr, meta-tyrosine], for which the root development entry in test [1] was “less developed compared to the line containing mtp-PheRS”; in test [2], “developed up to the half of the length of the non-treated plants”; in test [5], “didn't develop”. Further, the “synthesis of m-Tyr-tRNA^Phe” value on HsmtPheRS is listed as “could stably synthesize m-Tyr-tRNA^Phe”. At bacterial PheRS [3], the “mischarging of tRNA^Phe with m-Tyr” value was “no mischarging”. The IC50 in the test with Arabidopsis thaliana [4] is 2 µM. Besides, in the test with Arabidopsis thaliana [6], the “concentration that completely prevents seed germination” value was 50 µM. For the same compound, the “deacylation of m-Tyr from preloaded m-Tyr-tRNA^Phe” value with bacterial PheRS [7] is on record as “deacylated from the tRNA”.
